The test system of assay [1] is MeWo cells. As to the kind of experiment: Orthotopic metastasis assay after tumor excision. To be noted: chow 100 mg/kg for 1 month. Format: in vivo, human. Here is the method: To determine the effect of GW3965 treatment on lung colonization by melanoma cells dissociated from an orthotopic site, 1×10^6 MeWo cells expressing a luciferase reporter were subcutaneously injected into both lower flanks of NOD Scid mice. Upon the formation of tumors measuring 300 mm^3 in volume, the tumors were excised and the mice were randomly assigned to a control diet or a GW3965-supplemented diet (100 mg/kg) treatment. One month after tumor excision, the lungs were extracted and lung colonization was measured by ex vivo bioluminescence imaging. To histologically confirm the extent of melanoma lung colonization, lungs were then fixed in 4% PFA overnight, paraffin-embedded, section into […] increments and stained for human vimentin (VP-V684, Vector Laboratories).

The subject of assay [2] is B-RafV600E/+; Pten-/-; CDKN2A-/- primary mouse melanoma cells. The assay can be described thus: B-RafV600E/+; Pten-/-; CDKN2A-/- melanoma cells in syngeneic C57BL/6 mice. Format: in vivo. The procedure: FIG. 24A-F. Suppression of Genetically-Driven Melanoma Progression by LXR Activation Therapy. (FIG. 24A) Overall survival of Tyr::CreER; BrafV600E/+; Ptenlox/+C57BL/6 mice following general melanoma induction by intraperitoneal administration of 4-HT (25 mg/kg) on three consecutive days. After the first 4-HT injection, mice were randomly assigned to a control diet or a diet supplemented with GW3965 (100 mg/kg). n=10-11. (FIG. 24B) Melanoma tumor burden, expressed as the percentage of dorsal skin area, measured on day 35 in Tyr::CreER; BrafV600E/+; Ptenlox/lox mice administered a control chow or a chow supplemented with GW3965 (100 mg/kg) upon melanoma induction as described in (FIG. 24A). n=4-5. (FIG. 24C) Number of macroscopic metastatic nodules to the salivary gland lymph nodes detected post-mortem in Tyr::CreER; BrafV600E/+; Ptenlox/lox mice that were fed a control chow or a chow containing GW3965 (100 mg/kg) following global induction of melanoma progression as described in (FIG. 24A). n=7-8. (FIG. 24D) Tumor growth following subcutaneous injection of 1×105 BrafV600E/+; Pten−/−; CDKN2A−/− primary melanoma cells into syngeneic C57BL/6-WT mice. Upon tumor growth to 5-10 mm3 in volume, mice were fed with a control chow or a chow supplemented with GW3965 (100 mg/kg). n=16-18. […]

In assay [3] the test system is HUVEC. As to the kind of experiment: Endothelial migration and chemotaxis assay (cancer cell-free). Format: cell-based, human. The settings on record: LRP8 receptor-dependent. The procedure:
Serum-starved HUVEC's were pulsed with Cell Tracker Red CMTPX dye for 45 minutes and seeded into HTS Fluoroblock trans-well inserts at a concentration of 1×10^5 HUVEC's in 0.5 mL starvation media per each insert. The assay was allowed to proceed for 16-18 hours at 37° C., and the inserts were processed and analyzed as described above (See Matrigel Invasion Assay).
HUVEC's were serum-starved in 0.2% FBS EGM-2 media for 16 hours and labeled with Cell Tracker Red CMTPX dye for 45 minutes. Meanwhile, the indicated amounts (1-5 μg) of recombinant human ApoE3 or BSA were mixed with 250 μL of matrigel (356231, BD Biosciences) and allowed to solidify at the bottom of a 24-well plate for 30 min. 250 μL of HUVEC EGM-2 media containing 0.2% FBS was then added to each matrigel-coated well, and […] HTS Fluoroblock inserts were fitted into each well. 1×10^5 HUVEC's, resuspended in 0.5 mL of starvation media, were seeded into each insert and allowed to migrate along the matrigel gradient for 16-18 hours at 37° C. Upon completion of the assay, the inserts were mounted on slides and analyzed as described above (See Matrigel Invasion Assay).

Results on two molecules are retold here after US9399028B2, “Treatment of drug resistant cancer” (ROCKEFELLER UNIVERSITY (THE), priority 2012, dated 2016).

Where a name gives a salt, the structure may show the parent alone.

Consider `O=C(O)Cc1cccc(OCCCN(Cc2cccc(C(F)(F)F)c2Cl)CC(c2ccccc2)c2ccccc2)c1` [GW3965 2, 3-[3-[N-(2-Chloro-3-trifluoromethylbenzyl)-(2,2-diphenylethyl)amino]propyloxy]phenylacetic acid hydrochloride], for which the “inhibition of lung colonization by disseminated melanoma cells post-tumor excision” value in assay [1] is 17 fold. Also, the lung metastasis result in assay [2] (intravenous, diet 100 mg/kg) is reported as “robustly inhibited”. In addition, the tumor growth entry in assay [2] (subcutaneous, chow 100 mg/kg) is recorded as “robustly inhibited”.

Regarding “recombinant human ApoE3: recombinant human ApoE3 (4696, BioVision)”, the “endothelial migration in trans-well and gradient-based chemotactic assay” value in assay [3] was “sufficient to inhibit”.
